SMILES strings stand for the structures. Structures can show the parent of a compound that is named as a salt.

Sequence of adenosine A2a receptor (P29274 whole entry): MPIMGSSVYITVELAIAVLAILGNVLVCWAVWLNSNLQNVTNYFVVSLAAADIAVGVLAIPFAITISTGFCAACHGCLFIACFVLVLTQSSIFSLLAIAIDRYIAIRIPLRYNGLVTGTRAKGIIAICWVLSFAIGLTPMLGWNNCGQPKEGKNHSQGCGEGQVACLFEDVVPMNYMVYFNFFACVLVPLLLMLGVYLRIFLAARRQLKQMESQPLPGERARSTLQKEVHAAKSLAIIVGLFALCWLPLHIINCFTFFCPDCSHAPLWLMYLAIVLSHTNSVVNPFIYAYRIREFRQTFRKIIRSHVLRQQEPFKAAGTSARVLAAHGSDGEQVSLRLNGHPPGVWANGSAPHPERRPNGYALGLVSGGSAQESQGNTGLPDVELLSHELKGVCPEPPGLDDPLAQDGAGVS

The target of this test is adenosine A2a receptor (Homo sapiens, UniProt P29274). The test is described as follows: adenosine A2a receptor agonist test (method of Murphree et al / Hannon et al). The class given is binding. Here is the method:
Compounds of formula I and their pharmaceutically acceptable salts are useful as pharmaceuticals. In particular, they activate the adenosine A2a receptor activation, i.e. they act as A2a receptor agonists.
For example, the compounds of Examples 7, 8, 17, 19, and 38 have Ki values of 0.003, 0.002, 0.011, 0.008, and 0.007 μM respectively.
In the case of `CCC(=O)N[C@H]1C[C@@H](n2cnc3c(NCC(c4ccc(OC)cc4)c4ccc(OC)cc4)nc(N4CC[C@@H](NC(=O)N[C@@H]5CCNC5)C4)nc32)[C@H](O)[C@@H]1O` [Example 7, N-((1S,2R,3S,4R)-4-{6-[2,2-Bis-(4-methoxy-phenyl)-ethylamino]-2-[(R)-3-((R)-3-pyrrolidin-3-ylureido)-pyrrolidin-1-yl]-purin-9-yl}-2,3-dihydroxy-cyclopentyl)-propionamide trifluoroacetate], affinity was put at a Ki of 3 nM. Take `CCC(=O)N[C@H]1C[C@@H](n2cnc3c(NCC(c4ccccc4)c4ccc(F)cc4)nc(NC4CCC(N)CC4)nc32)[C@H](O)[C@@H]1O` (stereo partly drawn) [Example 38, N-((1S,2R,3S,4R)-4-{2-(4-Amino-cyclohexylamino)-6-[2-(4-fluoro-phenyl)-2-phenyl-ethylamino]-purin-9-yl}-2,3-dihydroxy-cyclopentyl)-propionamide trifluoroacetate]: the Ki (commonly the dissociation constant of the complex between target and ligand, obtained from inhibition or displacement) came out at 7 nM. This Ki lies about 2.3-fold higher than the previous one.

As for `CCC(=O)N[C@H]1C[C@@H](n2cnc3c(NCC(c4ccc(OC)c(OC)c4)c4ccc(OC)c(OC)c4)nc(N4CC[C@@H](NC(=O)N[C@@H]5CCNC5)C4)nc32)[C@H](O)[C@@H]1O` [Example 19, N-((1S,2R,3S,4R)-4-{6-[2,2-bis-(3,4-dimethoxy-phenyl)-ethylamino]-2-[(R)-3-((R)-3-pyrrolidin-3-ylureido)-pyrrolidin-1-yl]-purin-9-yl}-2,3-dihydroxy-cyclopentyl)-propionamide trifluoroacetate], the Ki is 8 nM. Consider `CCC(=O)N[C@H]1C[C@@H](n2cnc3c(NCC(c4ccccc4)c4ccc(F)cc4)nc(N4CC[C@@H](NC(=O)N[C@@H]5CCNC5)C4)nc32)[C@H](O)[C@@H]1O` (stereo partly drawn) [Example 8, N-((1S,2R,3S,4R)-4-{6-[2-(4-fluoro-phenyl)-2-phenyl-ethylamino]-2-[(R)-3-((R)-3-pyrrolidin-3-ylureido)-pyrrolidin-1-yl]-purin-9-yl}-2,3-dihydroxy-cyclopentyl)-propionamide trifluoroacetate], for which the Ki came out at 2 nM. Compared with the last compound, the Ki is about 4-fold lower. In turn, `CCC(=O)N[C@H]1C[C@@H](n2cnc3c(NCCc4ccccc4-c4ccccc4)nc(N4CC[C@@H](NC(=O)N[C@@H]5CCNC5)C4)nc32)[C@H](O)[C@@H]1O` [Example 17, N-((1S,2R,3S,4R)-4-{6-(2-biphenyl-2-yl-ethylamino)-2-[(R)-3-((R)-3-pyrrolidin-3-ylureido)-pyrrolidin-1-yl]-purin-9-yl}-2,3-dihydroxy-cyclopentyl)-propionamide trifluoroacetate] registered a Ki of 11 nM.

The values above are taken from patent publication US20090099214A1, “Organic Compounds” (Novartis AG, priority 2006, published 2009).
